Assay results from patent US5747500A, “Antiviral 2, 4-pyrimidinedione derivatives” (priority 1993, dated 1998).
Values after ≈ are worked out from the molar mass of the structure shown.

Assays:
HIV = assay: inhibition of HIV-induced cytopathic effect in MT-4 cells (MTT method); format: cell-based; conditions: for EC50: Human immunodeficiency virus 1, MT4, HIV-infected MT-4 cells, 1000 CCID50, 4 or 5 day incubation at 37° C., MTT method, read-out: ED50: Effective concentration for the inhibition of the proliferation of HIV by 50%; for S.I.: Selectivity index (CD50/ED50): ratio CD50/ED50, MT-4 cells
Protocol: The anti-HIV assays were based on the inhibition of the virus-induced cytopathic effect in MT-4 cells as described in J. Virol. Methods, 16, 171 (1987). Briefly, MT-4 cells were suspended in culture medium at 2.5×10^5 cells/ml and infected with 1000 CCID50 (50% cell culture infective dose) of HIV. Immediately, after virus infection, 100 μl of the cell suspension was brought into each well of a flat-bottomedmicrotiter tray containing various concentrations of the test compounds. After a 4 or 5 day incubation at 37° C., the number of viable cells was determined by the 3-(4,5-dimethylthiazol-2-yl)-2,5-diphenyltetrazoliumbromide (MTT) method, as disclosed in J. Virol. Methods, 20, 309 (1988).
ED50 : Effective concentration for the inhibition of the
proliferation of HIV by 50%

[1] = cytotoxicity: viability of mock-infected MT-4 host cells (MTT method); format: cell-based; conditions: human, mt-4 cells, read-out: CD50: Cytotoxic concentration that causes death of cells by 50%
Protocol: The cytotoxicity of the compounds of the present invention was assessed in parallel with their antiviral activity. It was based on the viability of mock-infected host cells as determined by the MTT methods (se J. Virol. Methods, 20, 309 (1988)).
CD50 : Cytotoxic concentration that causes death of cells by 50%

SMILES | EC50 (HIV) | S.I.: Selectivity index (CD50/ED50) (HIV) | CC50 [1]
CCOC/C=C\Cn1c(Sc2ccccc2)c(CC)c(=O)[nH]c1=O [Example 16] | 2.78 µg/mL (≈ 8.02 µM) | 6.85 | 19 µg/mL (≈ 54.9 µM)
CCc1c(Sc2ccccc2)n(C/C=C/c2ccccc2)c(=O)[nH]c1=O [Example 14] | < 0.032 µg/mL | > 180 | 5.77 µg/mL (≈ 15.8 µM)
Cc1cc(C)cc(Sc2c(C(C)C)c(=O)[nH]c(=O)n2CC#Cc2ccccc2)c1 [Example 3, 1-(3-phenyl-2-propynyl)-5-isopropyl-6-(3,5-dimethylphenylthio)-2,4-pyrimidinedione] | < 0.009 µg/mL | > 882 | 7.94 µg/mL (≈ 19.6 µM)
C/C=C/Cn1c(Sc2ccccc2)c(CC)c(=O)[nH]c1=O [Example 13] | < 0.32 µg/mL | > 50 | 16.2 µg/mL (≈ 53.5 µM)
CCc1c(Sc2cc(C)cc(C)c2)n(CC=CC(=O)O)c(=O)[nH]c1=O [Example 77, 1-(carboxyallyl)-5-ethyl-6-(3,5-dimethylphenylthio)-2,4-pyrimidinedione] | < 0.902 µg/mL | > 75 | 68.3 µg/mL (≈ 190 µM)
Cc1cc(C)cc(Oc2c(C(C)C)c(=O)[nH]c(=O)n2C/C=C/c2ccccc2)c1 [Example 65] | < 0.009 µg/mL | > 893 | 8.04 µg/mL (≈ 20.6 µM)
CC#CCn1c(Cc2cc(C)cc(C)c2)c(CC)c(=O)[nH]c1=O [Example 39, 1-(2-butynyl)-5-ethyl-6-(3,5-dimethylbenzyl)-2,4-pyrimidinedione] | < 0.049 µg/mL | > 176 | 8.65 µg/mL (≈ 27.9 µM)
Cc1cc(C)cc(C(=O)c2c(C(C)C)c(=O)[nH]c(=O)n2CC#Cc2ccccc2)c1 [Example 56, 1-(3-phenyl-2-propynyl)-5-isopropyl-6-(3,5-dimethylbenzoyl)-2,4-pyrimidinedione] | < 0.009 µg/mL | > 75.1 | 6.76 µg/mL (≈ 16.9 µM)
CCc1c(Sc2cc(C)cc(C)c2)n(C/C=C/CO)c(=O)[nH]c1=O [Example 78, 1-(4-hydroxy-trans-2-butenyl)-5-ethyl-6-(3,5-dimethylphenylthio)-2,4-pyrimidinedione] | < 0.97 µg/mL | > 29 | 29 µg/mL (≈ 83.6 µM)
Cc1cc(C)cc(C(=O)c2c(C(C)C)c(=O)[nH]c(=O)n2C/C=C/CO)c1 [Example 76, 1-(4-hydroxy-trans-2-butenyl)-5-isopropyl-6-(3,5-dimethylbenzoyl)-2,4-pyrimidinedione] | < 0.025 µg/mL | > 1,679 | 42 µg/mL (≈ 118 µM)
Cc1cc(C)cc(Cc2c(C(C)C)c(=O)[nH]c(=O)n2C/C=C/c2ccccc2)c1 [Example 6, 1-(trans-cinnamyl)-5-isopropyl-6-(3,5-dimethylbenzyl)-2,4-pyrimidinedione] | < 0.009 µg/mL | > 892 | 8.03 µg/mL (≈ 20.7 µM)
C#CCn1c(Oc2cc(C)cc(C)c2)c(CC)c(=O)[nH]c1=O [Example 60, 1-propargyl-5-ethyl-6-(3,5-dimethylphenoxy)-2,4-pyrimidinedione] | < 0.62 µg/mL | > 25 | 15.8 µg/mL (≈ 52.8 µM)
CC#CCn1c(Oc2cc(C)cc(C)c2)c(CC)c(=O)[nH]c1=O [Example 58] | < 0.34 µg/mL | > 143 | 48.9 µg/mL (≈ 157 µM)
C#CCn1c(C(=O)c2cc(C)cc(C)c2)c(CC)c(=O)[nH]c1=O [Example 48, 1-propargyl-5-ethyl-6-(3,5-dimethylbenzoyl)-2,4-pyrimidinedione] | < 0.39 µg/mL | > 93 | 36.4 µg/mL (≈ 117 µM)
CCOC(=O)C=CCn1c(C(=O)c2cc(C)cc(C)c2)c(CC)c(=O)[nH]c1=O [Example 72, 1-(ethoxycarbonylallyl)-5-ethyl-6-(3,5-dimethylbenzoyl)-2,4-pyrimidinedion] | < 0.01 µg/mL | > 685 | 6.85 µg/mL (≈ 17.8 µM)
CC#CCn1c(C(=O)c2cc(C)cc(C)c2)c(C(C)C)c(=O)[nH]c1=O [Example 55, 1-(2-butynyl)-5-isopropyl-6-(3,5-dimethylbenzoyl)-2,4-pyrimidinedione] | < 0.32 µg/mL | > 130 | 41.7 µg/mL (≈ 123 µM)
C=CCn1c(Sc2ccccc2)c(CC)c(=O)[nH]c1=O [Example 12, 1-allyl-5-ethyl-6-phenylthio-2,4-pyrimidinedione] | < 0.32 µg/mL | > 54 | 17.5 µg/mL (≈ 60.6 µM)
CCc1c(Cc2cc(C)cc(C)c2)n(CC=C(C)C)c(=O)[nH]c1=O [Example 36, 1-(3-methyl-2-butenyl)-5-ethyl-6-(3,5-dimethylbenzyl)-2,4-pyrimidinedione] | < 0.33 µg/mL | 66 | 22.1 µg/mL (≈ 67.6 µM)

SMILES | EC50 (HIV) | S.I.: Selectivity index (CD50/ED50) (HIV) | CC50 [1]
CCc1c(C(=O)c2cc(C)cc(C)c2)n(CC=CC(=O)OC)c(=O)[nH]c1=O [Example 8, 1-(methoxycarbonylallyl)-5-ethyl-6-(3,5-dimethylbenzoyl)-2,4-pyrimidinedione] | < 0.19 µg/mL | > 143 | 27.2 µg/mL (≈ 73.5 µM)
CC#CCn1c(C(=O)c2cc(C)cc(C)c2)c(CC)c(=O)[nH]c1=O [Example 49, 1-(2-butynyl)-5-ethyl-6-(3,5-dimethylbenzoyl)-2,4-pyrimidinedione] | < 0.032 µg/mL | > 162 | 5.2 µg/mL (≈ 16 µM)
C=CCn1c(Cc2ccccc2)c(CC)c(=O)[nH]c1=O [Example 4, 1-allyl-5-ethyl-6-benzyl-2,4-pyrimidinedione] | < 0.32 µg/mL | > 164 | 52.5 µg/mL (≈ 194 µM)
CC/C=C/Cn1c(Sc2cc(C)cc(C)c2)c(CC)c(=O)[nH]c1=O [Example 2, 1-(trans-2-pentenyl)-5-ethyl-6-(3,5-dimethylphenylthio)-2,4-pyrimidinedione] | < 0.32 µg/mL | > 29 | 8.73 µg/mL (≈ 25.3 µM)
CC#CCn1c(Sc2cc(C)cc(C)c2)c(CC)c(=O)[nH]c1=O [Example 25, 1-(2-butynyl)-5-ethyl-6-(3,5-dimethylphenylthio)-2,4-pyrimidinedione] | < 0.69 µg/mL | > 90 | 62.5 µg/mL (≈ 190 µM)
CCc1c(Sc2cc(C)cc(C)c2)n(COCc2ccccc2)c(=O)[nH]c1=O [Ref. 2, 1benzyloxymethyl-5-ethyl-6-(3,5-dimethylphenylthio)-2,4-pyrimidinedione, reference compound] | < 0.009 µg/mL | > 672 | 6.05 µg/mL (≈ 15.3 µM)
C#CCn1c(Cc2cc(C)cc(C)c2)c(CC)c(=O)[nH]c1=O [Example 38, 1-propargyl-5-ethyl-6-(3,5-dimethylbenzyl)-2,4-pyrimidinedione] | < 0.32 µg/mL | > 75 | 24.1 µg/mL (≈ 81.5 µM)
CCc1c(Cc2ccccc2)n(C/C=C/c2ccccc2)c(=O)[nH]c1=O [Example 33] | < 0.032 µg/mL | > 268 | 8.58 µg/mL (≈ 24.8 µM)
C/C=C/Cn1c(Cc2ccccc2)c(CC)c(=O)[nH]c1=O [Example 32] | < 0.32 µg/mL | > 101 | 32.4 µg/mL (≈ 114 µM)
C/C=C/Cn1c(C(=O)c2cc(C)cc(C)c2)c(C(C)C)c(=O)[nH]c1=O [Example 51] | < 0.01 µg/mL | > 2,473 | 22.3 µg/mL (≈ 65.4 µM)
CC#CCn1c(Sc2cc(C)cc(C)c2)c(C(C)C)c(=O)[nH]c1=O [Example 31, 1-(2-butynyl)-5-isopropyl-6-(3,5-dimethylphenylthio)-2,4-pyrimidinedione] | < 0.32 µg/mL | > 52 | 16.9 µg/mL (≈ 49.5 µM)
CCc1c(Sc2cc(C)cc(C)c2)n(C/C=C\CCl)c(=O)[nH]c1=O [Example 23] | < 0.93 µg/mL | > 41 | 38.2 µg/mL (≈ 105 µM)
C/C=C/Cn1c(Oc2cc(C)cc(C)c2)c(C(C)C)c(=O)[nH]c1=O [Example 64] | < 0.009 µg/mL | > 1,098 | 9.89 µg/mL (≈ 30.1 µM)
CCc1c(Cc2cc(C)cc(C)c2)n(C/C=C/c2ccccc2)c(=O)[nH]c1=O [Example 35] | < 0.009 µg/mL | 642 | 5.78 µg/mL (≈ 15.4 µM)
C=CCn1c(Oc2cc(C)cc(C)c2)c(CC)c(=O)[nH]c1=O [Example 57, 1-allyl-5-ethyl-6-(3,5-dimethylphenoxy)-2,4-pyrimidinedione] | < 0.32 µg/mL | > 132 | 42.4 µg/mL (≈ 141 µM)
C/C=C/Cn1c(Oc2cc(C)cc(C)c2)c(CC)c(=O)[nH]c1=O [Example 10, 1-(trans-2-butenyl)-5-ethyl-6-(3,5-dimethylphenoxy)-2,4-pyrimidinedione] | < 0.01 µg/mL | > 1,939 | 19.4 µg/mL (≈ 61.7 µM)
COC(=O)/C=C/Cn1c(Oc2cc(C)cc(C)c2)c(C(C)C)c(=O)[nH]c1=O [Example 66] | < 0.32 µg/mL | > 245 | 78.6 µg/mL (≈ 211 µM)
Cc1cc(C)cc(C(=O)c2c(C(C)C)c(=O)[nH]c(=O)n2C/C=C/CCl)c1 [Example 9, 1-(4-chloro-trans-2-butenyl)-5-isopropyl-6-(3,5-dimethylbenzoyl)-2,4-pyrimidinedione] | < 0.009 µg/mL | > 708 | 6.38 µg/mL (≈ 17 µM)
